Data from patent US7956083B2, “Compounds” (Glaxo Group Limited, priority 2008, dated 2011).

Biological target: human ER beta (Homo sapiens, UniProt Q92731)
Assay: ER beta FP binding assay (fluorescence polarisation, Fluormone EL Red ligand)
Conditions: 6 nM ERbeta protein, 1.5 nM ER FP ligand, 3 hours at room temperature; read-out: pIC50 in the ER beta FP binding assay (converted)
Method: Assay Buffer (AB) (50 mM MOPES pH 7.5, 50 mM NaF, 2.5 mM CHAPs), in deionized water, 5 mM 1,4 dithiothreitol (DTT) added on day of the experiment. The appropriate amount of AB was placed in a plastic tube, adding solid DTT before the assay was run. AB with DTT was distributed to plastic tubes. We have found use of plastic to be important vs glass. A final concentration of 6 nM ERbeta protein was added to the tube followed by gentle inversion. A final concentration of 1.5 nM ER FP ligand (Fluormone™ EL Red 200 nM in 20 mM Tris, 90% Methanol purchased from Invitrogen catalogue no P3030) was added to the same tube followed by gentle inversion. This was allowed to sit for 5-10 minutes before adding it to the 384 assay plate. Similar protocol was used for ERalpha with a final concentration of 4 nM ERalpha and 1.5 nM ER FP ligand.
384 plates containing test compounds dissolved in 100% DMSO at 1 mM were serially diluted (1:3) by a Beckman FX. Serial diluted test compounds were added, 0.1 μL, to the assay plates with a maximum final concentration of 10 uM. Once the assay plates were ready, 10 μL of the above reagents were added to the appropriate set of plates with the Thermo combi. These plates were then sealed and place at room temperature for 3 hours.
The plates were then placed on the Molecular Devices Analyst and counted (excitation 535 nm, emission 590 nm with a 561 Dichroic mirror). Data was normalized to control then fitted to a non-linear least squares algorithm (see below).
pIC50 Calculation y=a+((b−a)/(1+(10^x/10^c){circumflex over (0)}d)
The amino acid sequence of human ER beta used in this assay is […]

Sequence of human ER beta (Q92731 with tags, fused parts or gaps): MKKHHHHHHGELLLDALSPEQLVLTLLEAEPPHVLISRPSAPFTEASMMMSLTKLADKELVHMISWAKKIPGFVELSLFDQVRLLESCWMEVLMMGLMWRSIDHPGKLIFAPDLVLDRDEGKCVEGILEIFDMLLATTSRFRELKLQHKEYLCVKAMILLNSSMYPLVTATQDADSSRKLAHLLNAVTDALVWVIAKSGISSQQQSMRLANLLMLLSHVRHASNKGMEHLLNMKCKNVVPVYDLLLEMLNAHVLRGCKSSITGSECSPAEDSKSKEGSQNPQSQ

Compound	IC50
Oc1ccc(-n2ccc3c(O)c(F)cc(Br)c32)cc1F [Example 4, 7-bromo-5-fluoro-1-(3-fluoro-4-hydroxyphenyl)-1H-indol-4-ol]	< 10 nM
Oc1ccc(-n2ccc3c(O)c(F)ccc32)cc1F [Example 5, 5-fluoro-1-(3-fluoro-4-hydroxyphenyl)-1H-indol-4-ol]	< 10 nM
Oc1ccc(-n2ccc3c(O)ccc(Cl)c32)cc1F [Example 7, 7-Chloro-1-(3-fluoro-4-hydroxyphenyl)-1H-indol-4-ol]	< 10 nM
N#Cc1cc(O)c2ccn(-c3ccc(O)c(F)c3)c2c1 [Example 8, 1-(3-Fluoro-4-hydroxyphenyl)-4-hydroxy-1H-indole-6-carbonitrile]	< 10 nM
Oc1ccc(-n2ccc3c(O)cc(F)cc32)cc1F [Example 9, 6-Fluoro-1-(3-fluoro-4-hydroxyphenyl)-1H-indol-4-ol]	< 10 nM
Oc1ccc(-n2ccc3c(O)cc(F)cc32)cc1 [Example 10, 6-fluoro-1-(4-hydroxyphenyl)-1H-indol-4-ol]	< 10 nM
